Source: patent US12496348B2, “Small molecule target bromo/acetyl proteins and uses thereof” (DANA-FARBER CANCER INSTITUTE, INC., priority 2019, dated 2025)
Read-outs that look alike come from different tables or passages of the source.

What was measured:
EP300 = EP300 (Homo sapiens (Human), UniProt Q09472); assay: Western blot for EP300 degradation in Kelly NB cells; format: cell-based
Experimental: (§1) […] Whole cell lysates were collected using ice cold lysis buffer [300 mM NaCl, 50 mM Tris-HCl, pH 7.5, 0.5% Triton X-100, 1% sodium dodecyl sulfate (SDS), 1 mM dithiothreitol (DTT) (Invitrogen™), Roche®'s cOmplete™ protease inhibitor cocktail (1:000), 25 units/mL Benzonase®] and blotted at a protein concentration of 30 μg for EP300 and CBP and 10 μg for histone H3 and H3K27ac. Lysates were also blotted for bromodomain-containing protein 4 (BRD4). Lysates were resolved in NuPAGE™ 3-8% Tris-Acetate polyacrylamide gels (EA03785BOX, Invitrogen™) for EP300 and CBP and Bolt 4-12% Bis-Tris polyacrylamide gels (NW04125BOX, Invitrogen™) for H3 and H3K27ac. Afterwards, gels were transferred to nitrocellulose membranes (LC2001, Invitrogen™). […] Visualization was performed on an Odyssey infrared imaging system (LiCor® Biosciences).

H3K27ac = assay: Western blot for H3K27ac levels in Kelly NB cells; format: cell-based; settings: 24 hours, concentration not given
Experimental: (§2) Kelly Neuroblastoma cells were seeded at 1,000,000 cells per well in 6 well plates and were treated in a dose-dependent manner for 24 hours. Whole cell lysates were collected using ice cold lysis buffer [300 mM NaCl, 50 mM Tris-HCl, pH 7.5, 0.5% Triton X-100, 1% sodium dodecyl sulfate (SDS), 1 mM dithiothreitol (DTT) (Invitrogen™), Roche®'s cOmplete™ protease inhibitor cocktail (1:000), 25 units/mL Benzonase®] and blotted at a protein concentration of 30 μg for EP300 and CBP and 10 μg for histone H3 and H3K27ac. Lysates were also blotted for bromodomain-containing protein 4 (BRD4). Lysates were resolved in NuPAGE™ 3-8% Tris-Acetate polyacrylamide gels (EA03785BOX, Invitrogen™) for EP300 and CBP and Bolt 4-12% Bis-Tris polyacrylamide gels (NW04125BOX, Invitrogen™) for H3 and H3K27ac. Afterwards, gels were transferred to nitrocellulose membranes (LC2001, Invitrogen™). […] Visualization was performed on an Odyssey infrared imaging system (LiCor® Biosciences).

[1] = tested on: Kelly Neuroblastoma cells; assay: ATPlite Luminescence viability assay, Kelly neuroblastoma cells, 72 h; format: cell-based; settings: Kelly Neuroblastoma cells; for IC50: ATPlite
Experimental: Kelly Neuroblastoma cells were seeded at 1,000 cells per well in 384 well, white plates and were treated in a dose-dependent manner for 72 h.

CBP bromodomain = CBP bromodomain (Homo sapiens (Human), UniProt Q92793); assay: CBP (Bromodomain) AlphaScreen Assay; format: binding; settings: FIG. 6
Chain of CBP bromodomain (Q92793 1085-1192): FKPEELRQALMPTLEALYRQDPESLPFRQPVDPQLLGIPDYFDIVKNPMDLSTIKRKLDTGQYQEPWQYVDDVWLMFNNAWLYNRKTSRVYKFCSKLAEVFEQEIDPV
Experimental: Assays were performed with minimal modifications from the manufacturer's protocol (PerkinElmer®, USA). All reagents were diluted in 50 mM 4-(2-hydroxyethyl)-1-piperazineethanesulfonic acid (HEPES), 150 mM NaCl, 0.1% w/v bovine serum albumin (BSA), 0.01% w/v Tween® 20, pH 7.5 and allowed to equilibrate to room temperature prior to addition to plates. After addition of AlphaScreen® acceptor beads to master solutions, all subsequent steps were performed under low light conditions. […] Plates were spun down at 150×g, 100 nL of compound in dimethyl sulfoxide (DMSO) from stock plates were added by pin transfer using a Janus® Workstation (PerkinElmer®, USA). The streptavidin-coated donor beads (10 ng/ml final) were added as with previous the solution in a 2×10 μL volume. Following this addition, plates were sealed with foil to prevent light exposure and evaporation. The plates were spun down again at 150×g.

CBP = CBP (Homo sapiens (Human), UniProt Q92793); assay: Western blot for CBP degradation in Kelly NB cells; format: cell-based
Chain of CBP (Q92793 whole entry): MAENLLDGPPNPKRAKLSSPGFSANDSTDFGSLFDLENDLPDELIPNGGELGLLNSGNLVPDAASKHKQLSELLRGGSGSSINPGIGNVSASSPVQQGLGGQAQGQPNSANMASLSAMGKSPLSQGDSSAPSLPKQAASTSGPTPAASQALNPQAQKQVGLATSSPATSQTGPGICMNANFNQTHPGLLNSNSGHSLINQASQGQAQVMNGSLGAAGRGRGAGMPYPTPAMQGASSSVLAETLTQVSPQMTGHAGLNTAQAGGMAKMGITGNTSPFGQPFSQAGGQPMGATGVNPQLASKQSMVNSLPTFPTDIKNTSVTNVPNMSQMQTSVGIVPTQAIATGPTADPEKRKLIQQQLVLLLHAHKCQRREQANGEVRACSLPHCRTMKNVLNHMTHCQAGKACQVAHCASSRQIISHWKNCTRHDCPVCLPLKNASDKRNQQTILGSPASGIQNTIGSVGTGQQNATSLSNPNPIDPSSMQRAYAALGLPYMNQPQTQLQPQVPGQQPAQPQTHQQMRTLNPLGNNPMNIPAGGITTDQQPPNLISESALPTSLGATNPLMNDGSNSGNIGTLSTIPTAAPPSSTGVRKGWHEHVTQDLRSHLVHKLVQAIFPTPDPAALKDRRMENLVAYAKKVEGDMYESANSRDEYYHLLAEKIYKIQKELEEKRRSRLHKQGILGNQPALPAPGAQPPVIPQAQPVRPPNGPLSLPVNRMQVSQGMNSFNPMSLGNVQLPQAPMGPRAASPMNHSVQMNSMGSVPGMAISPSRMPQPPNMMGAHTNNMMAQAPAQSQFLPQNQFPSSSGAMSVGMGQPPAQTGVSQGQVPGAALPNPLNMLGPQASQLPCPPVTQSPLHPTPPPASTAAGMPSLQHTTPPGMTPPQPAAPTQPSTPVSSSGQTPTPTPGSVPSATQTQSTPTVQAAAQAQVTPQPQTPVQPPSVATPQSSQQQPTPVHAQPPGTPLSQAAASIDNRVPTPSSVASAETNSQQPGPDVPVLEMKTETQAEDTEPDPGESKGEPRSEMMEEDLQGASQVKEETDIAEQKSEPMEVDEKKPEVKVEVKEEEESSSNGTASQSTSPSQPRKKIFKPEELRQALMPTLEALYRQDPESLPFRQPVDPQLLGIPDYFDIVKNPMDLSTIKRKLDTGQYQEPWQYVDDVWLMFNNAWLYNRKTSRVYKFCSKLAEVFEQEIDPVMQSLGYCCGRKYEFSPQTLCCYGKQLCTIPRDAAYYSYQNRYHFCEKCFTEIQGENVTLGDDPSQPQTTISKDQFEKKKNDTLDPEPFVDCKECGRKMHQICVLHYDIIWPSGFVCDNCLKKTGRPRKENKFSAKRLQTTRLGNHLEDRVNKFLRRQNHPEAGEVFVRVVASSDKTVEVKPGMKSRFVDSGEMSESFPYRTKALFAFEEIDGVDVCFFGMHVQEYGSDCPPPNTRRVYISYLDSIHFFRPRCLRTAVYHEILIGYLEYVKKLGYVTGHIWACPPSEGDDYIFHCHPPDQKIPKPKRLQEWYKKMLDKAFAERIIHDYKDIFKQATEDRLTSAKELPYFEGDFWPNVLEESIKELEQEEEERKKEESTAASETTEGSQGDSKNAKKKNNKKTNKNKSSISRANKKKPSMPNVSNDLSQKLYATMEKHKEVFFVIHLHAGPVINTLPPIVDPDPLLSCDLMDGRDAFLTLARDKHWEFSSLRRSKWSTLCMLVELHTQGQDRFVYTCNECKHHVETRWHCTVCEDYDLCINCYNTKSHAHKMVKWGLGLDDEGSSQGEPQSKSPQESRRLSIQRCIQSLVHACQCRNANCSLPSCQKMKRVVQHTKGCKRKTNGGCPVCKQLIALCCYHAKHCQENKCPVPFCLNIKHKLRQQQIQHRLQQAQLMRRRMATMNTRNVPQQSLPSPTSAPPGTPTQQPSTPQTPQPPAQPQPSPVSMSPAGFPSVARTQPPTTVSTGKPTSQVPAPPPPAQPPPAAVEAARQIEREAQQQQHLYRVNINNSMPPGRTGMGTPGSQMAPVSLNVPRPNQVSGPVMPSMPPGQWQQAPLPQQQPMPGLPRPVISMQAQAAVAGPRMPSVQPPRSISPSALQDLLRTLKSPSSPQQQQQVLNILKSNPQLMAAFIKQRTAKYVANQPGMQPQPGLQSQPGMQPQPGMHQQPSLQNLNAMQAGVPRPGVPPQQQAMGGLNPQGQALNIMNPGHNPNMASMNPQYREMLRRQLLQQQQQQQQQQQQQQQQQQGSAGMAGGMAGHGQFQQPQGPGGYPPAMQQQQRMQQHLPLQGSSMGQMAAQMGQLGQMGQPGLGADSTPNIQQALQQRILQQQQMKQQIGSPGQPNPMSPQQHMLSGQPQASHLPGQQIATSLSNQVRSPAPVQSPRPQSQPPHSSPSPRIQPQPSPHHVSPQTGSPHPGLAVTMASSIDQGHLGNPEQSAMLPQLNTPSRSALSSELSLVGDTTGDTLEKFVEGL
Experimental: as §1

[2] = tested on: Kelly Neuroblastoma cells; assay: Western blot experiment, cytotoxicity observed in Kelly NB cells; format: cell-based; settings: 24 hours
Experimental: as §2

BRD2/3/4 = assay: Western blot, selectivity against BRD2/3/4 in Kelly NB cells; format: cell-based; settings: 8 and 16 hours
Experimental: […] Whole cell lysates were collected using ice cold lysis buffer [300 mM NaCl, 50 mM Tris-HCl, pH 7.5, 0.5% Triton X-100, 1% sodium dodecyl sulfate (SDS), 1 mM dithiothreitol (DTT) (Invitrogen™), Roche®'s cOmplete™ protease inhibitor cocktail (1:000), 25 units/mL Benzonase®] and blotted at a protein concentration of 30 μg for EP300 and CBP and 10 μg for histone H3 and H3K27ac. Lysates were also blotted for bromodomain-containing protein 4 (BRD4). Lysates were resolved in NuPAGE™ 3-8% Tris-Acetate polyacrylamide gels (EA03785BOX, Invitrogen™) for EP300 and CBP and Bolt 4-12% Bis-Tris polyacrylamide gels (NW04125BOX, Invitrogen™) for H3 and H3K27ac. Afterwards, gels were transferred to nitrocellulose membranes (LC2001, Invitrogen™). Primary and secondary antibodies used included anti-p300 at 1:500 dilution (ab10485, Abcam®), anti-CBP at 1:500 dilution (D6C5, Cell Signaling Technology®), anti-Actin at 1:5000 dilution (3700S, Cell Signaling Technology®), anti-H3 at 1:1000 dilution (4499S, Cell Signaling Technology®), anti-H3K27ac at 1:1000 dilution (ab4729, Abcam®), IRDye®800 goat anti-rabbit at 1:5000 dilution (926-32211, LiCor® Biosciences) and IRDye®680 goat anti-mouse at 1:5000 dilution (926-68070, LiCor®). Visualization was performed on an Odyssey infrared imaging system (LiCor® Biosciences).

[3] = 24 hours, concentration not given

Chain of EP300 (Q09472 whole entry): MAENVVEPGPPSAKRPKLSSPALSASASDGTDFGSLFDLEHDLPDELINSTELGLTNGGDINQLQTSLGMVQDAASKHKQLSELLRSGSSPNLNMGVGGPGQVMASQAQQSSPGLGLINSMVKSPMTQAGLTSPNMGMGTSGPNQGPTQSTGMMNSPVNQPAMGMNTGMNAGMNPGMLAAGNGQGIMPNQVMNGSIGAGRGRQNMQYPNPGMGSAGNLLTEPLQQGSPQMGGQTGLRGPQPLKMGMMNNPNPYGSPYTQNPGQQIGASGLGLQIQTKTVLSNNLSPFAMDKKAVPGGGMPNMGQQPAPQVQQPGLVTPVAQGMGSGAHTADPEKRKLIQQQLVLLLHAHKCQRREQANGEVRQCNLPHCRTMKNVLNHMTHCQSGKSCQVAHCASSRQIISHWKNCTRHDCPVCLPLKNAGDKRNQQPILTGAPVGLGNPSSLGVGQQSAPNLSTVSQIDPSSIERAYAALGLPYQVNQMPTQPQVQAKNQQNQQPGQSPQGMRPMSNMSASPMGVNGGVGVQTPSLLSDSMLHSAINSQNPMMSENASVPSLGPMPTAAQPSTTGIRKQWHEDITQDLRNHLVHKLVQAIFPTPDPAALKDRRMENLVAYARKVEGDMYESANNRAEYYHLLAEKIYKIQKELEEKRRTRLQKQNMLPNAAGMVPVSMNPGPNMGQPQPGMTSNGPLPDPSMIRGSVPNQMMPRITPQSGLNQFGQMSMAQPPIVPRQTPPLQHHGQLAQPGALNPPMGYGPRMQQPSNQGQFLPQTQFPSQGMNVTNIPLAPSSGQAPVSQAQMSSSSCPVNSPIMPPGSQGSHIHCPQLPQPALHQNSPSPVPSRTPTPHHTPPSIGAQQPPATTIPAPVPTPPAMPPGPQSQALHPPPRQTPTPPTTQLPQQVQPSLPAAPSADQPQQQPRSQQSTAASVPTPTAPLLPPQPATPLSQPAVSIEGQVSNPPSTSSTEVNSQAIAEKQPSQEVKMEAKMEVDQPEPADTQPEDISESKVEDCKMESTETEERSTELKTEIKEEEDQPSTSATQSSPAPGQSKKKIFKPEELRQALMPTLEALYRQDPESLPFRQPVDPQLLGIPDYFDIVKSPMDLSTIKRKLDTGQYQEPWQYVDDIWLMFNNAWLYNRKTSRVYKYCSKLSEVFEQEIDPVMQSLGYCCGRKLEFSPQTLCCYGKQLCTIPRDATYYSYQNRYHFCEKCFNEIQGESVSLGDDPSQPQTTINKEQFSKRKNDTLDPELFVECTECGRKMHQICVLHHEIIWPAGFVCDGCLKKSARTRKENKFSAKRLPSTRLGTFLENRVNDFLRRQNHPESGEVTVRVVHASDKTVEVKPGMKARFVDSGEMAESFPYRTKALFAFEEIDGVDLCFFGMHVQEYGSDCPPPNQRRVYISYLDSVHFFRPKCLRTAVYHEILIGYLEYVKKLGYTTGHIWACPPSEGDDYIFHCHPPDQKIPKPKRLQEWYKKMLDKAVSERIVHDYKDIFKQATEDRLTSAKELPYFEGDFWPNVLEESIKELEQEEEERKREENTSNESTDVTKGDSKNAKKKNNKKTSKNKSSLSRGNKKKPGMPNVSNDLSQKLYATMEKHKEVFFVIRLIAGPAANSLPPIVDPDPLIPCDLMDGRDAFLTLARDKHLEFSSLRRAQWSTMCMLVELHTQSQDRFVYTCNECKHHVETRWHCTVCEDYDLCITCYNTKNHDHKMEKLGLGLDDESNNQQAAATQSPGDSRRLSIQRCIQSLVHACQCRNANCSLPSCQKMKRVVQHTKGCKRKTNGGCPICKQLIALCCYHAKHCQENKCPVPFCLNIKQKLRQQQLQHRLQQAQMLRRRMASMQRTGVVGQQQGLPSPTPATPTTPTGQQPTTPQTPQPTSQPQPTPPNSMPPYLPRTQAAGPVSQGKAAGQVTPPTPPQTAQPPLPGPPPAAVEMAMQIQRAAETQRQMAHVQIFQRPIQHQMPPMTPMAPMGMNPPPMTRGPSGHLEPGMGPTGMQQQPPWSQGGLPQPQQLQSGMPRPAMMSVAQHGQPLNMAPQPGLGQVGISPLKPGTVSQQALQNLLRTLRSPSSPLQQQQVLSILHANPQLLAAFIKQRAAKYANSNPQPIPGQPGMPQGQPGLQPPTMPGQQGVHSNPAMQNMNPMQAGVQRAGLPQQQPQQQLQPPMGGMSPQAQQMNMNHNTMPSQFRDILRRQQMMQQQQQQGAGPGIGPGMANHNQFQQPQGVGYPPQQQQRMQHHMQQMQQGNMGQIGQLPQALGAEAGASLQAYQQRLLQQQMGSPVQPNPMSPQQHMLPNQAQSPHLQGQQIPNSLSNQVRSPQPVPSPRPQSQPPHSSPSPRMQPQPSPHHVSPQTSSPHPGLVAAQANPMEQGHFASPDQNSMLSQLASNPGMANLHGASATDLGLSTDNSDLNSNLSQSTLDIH

Row | Structure (SMILES) | EP300 degradation (immunoblot) (EP300; [3]) | H3K27ac / acetylation levels (immunoblot) (H3K27ac) | IC50 ([1]; class symbols, read-out: IC50 of inventive bispecific compounds) [nM] | IC50 ([1]; read-out: IC50) [nM] | IC50 potency relative to A485 ([1]; more potent than A485) | bound to CBP (bromodomain), range (CBP bromodomain) [µM] | CBP degradation (immunoblot) (CBP; [3]) | general cytotoxicity [2] | P300 degradation (immunoblot) (EP300; 8 and 16 hours, at 3 μM) | CBP degradation (immunoblot) (CBP; 8 and 16 hours, at 3 μM) | selectivity of P300 and CBP degradation against BRD2/3/4 (BRD2/3/4)
1 | Cc1noc(C)c1-c1ccc2nc(-c3ccc(N4CCN(C(=O)CCOCCOCCOCCNc5cccc6c5C(=O)N(C5CCC(=O)NC5=O)C6=O)CC4)cc3)c(NC3CCCCC3)n2c1 (stereo not drawn) [Compound 2, 4-((2-(2-(2-(3-(4-(4-(3-(cyclohexylamino)-6-(3,5-dimethylisoxazol-4-yl)imidazo[1,2-a]pyridin-2-yl)phenyl)piperazin-1-yl)-3-oxopropoxy)ethoxy)ethoxy)ethyl)amino)-2-(2,6-dioxopiperidin-3-yl)isoindoline-1,3-dione] | potent degrader | evident reduction | < 100 | 91.8 ± 6.58 | about 10 fold | ~10 | potent degrader |  |  |  | 
2 | Cc1noc(C)c1-c1ccc2nc(-c3ccc(N4CCNCC4)cc3)c(NC3CCCCC3)n2c1.Cl [Int-2] |  |  |  |  |  | ~10 |  | general cytotoxicity |  |  | 
3 | C[C@@H]1CC(=O)Nc2cccc(-c3ccc4c(c3)c(-c3cnn(C(=O)CCCCCCCCCNc5cccc6c5C(=O)N(C5CCC(=O)NC5=O)C6=O)c3)nn4C)c2N1 (stereo partly drawn) [Compound 31, 2-(2,6-dioxopiperidin-3-yl)-4-((10-(4-(1-methyl-5-((R)-4-methyl-2-oxo-2,3,4,5-tetrahydro-1H-benzo[b][1,4]diazepin-6-yl)-1H-indazol-3-yl)-1H-pyrazol-1-yl)-10-oxodecyl)amino)isoindoline-1,3-dione] |  |  |  |  |  |  |  |  | noticeable degradation | noticeable degradation | selective
